Data on 1 compound can be found in patent US10556860B2, “hTERT modulators and methods of use” (Arizona Board of Regents on Behalf of the University of …, priority 2015, dated 2020).

Experiment [1] deals with G146A mutant hTERT G-quadruplex. Kind of experiment: CD melting (Tm), G146A mutant. The experiment is classed as binding, human. The note with it: 2 equiv. On the procedure: Circular dichroism. Oligomers of WT, G124A, G124/125A, G138/139A and G146A were synthesized and HPSF-purified by MGW Operon, Inc. For CD analysis, oligomers (5 μM) in a buffer containing 10 mM Tris-HCl (pH 7.5) and 140 mM KCl were annealed. For the CD analysis of the complex of oligomers and compounds, oligomers (5 μM) in a buffer containing 10 mM Tris-HCl (pH 7.5) and 5 mM KCl for GTC365 or 1 mM KCl for BRACO-19 were annealed. Oligomers and GTC365 or BRACO-19 were incubated overnight at room temperature. For the full-length of C-rich strand, the oligomer in a buffer of 10 mM Na cacodylate (pH 6.6) was annealed and then incubated with GTC365 overnight. CD analysis was conducted on a Jasco 810 spectropolarimeter (Jasco, Easton, Md.) using a quartz cell with 1 mm of path length, 1 nm of band width, and 1 s of response time for spectra at 20° C. Melting curves for the determination of Tm were obtained by recording ellipticity at 262 nm with increasing temperatures from 25° C. to 95° C. at a rate of 1.6° C./min. Tm of the C-rich strand with GTC365 was obtained from the CD signal at 286 nm within 10-60° C.
CD and DMS footprinting analyses were conducted to characterize the binding of GTC365 and BRACO-19 to the 5-12 G-quadruplex. […] To verify the effects of compounds on the thermal stability of the WT and the mutant G-quadruplexes, Tms were determined by CD. […]

The test system of experiment [2] is G124/125A mutant hTERT 5-12 fragment. Kind of experiment: Single-molecule laser tweezer unfolding, G124/125A mutant. The following applies: 2 μM, 10 mM Tris, 100 mM KCl, pH 7.4; single- and double-stranded template. It is filed as biochemical, human. On the procedure: Single-molecule tweezer. Preparation of the DNA construct. The DNA construct that contains the single-stranded hTERT 5-12 fragment was prepared by sandwiching the target sequence between two double-stranded DNA handles. Five deoxythymidines were added at both ends of the hTERT 5-12 fragment to reduce the interference from the double-stranded DNA handles on the target sequence. Briefly, the 2690-base-pair double-stranded DNA handle was prepared through restriction enzyme digestion of the pEGFP vector (Clontech, Mountain View, Calif.). In the first step, the vector was digested by Sad and Eagl restriction enzymes, followed by purification with agarose gel. The EagI end of the DNA fragment was labeled with digoxigenin using terminal deoxynucleotidyl transferase. […]
Single-molecule force-ramp assay. […] After this, the two beads were moved apart to increase the tension on the DNA tether with a loading rate of 5.5 pN/s, and the force-extension (F-X) curves were recorded using the LabVIEW program (National Instruments Corp., Austin, Tex.).
The F-X curves were filtered by Savitzky-Golay function with a 10 ms time constant in the MATLAB program (The Math Works, Natick, Mass.). […] The change-in-contour length (ΔL) was calculated based on the Δx through the worm-like chain model (equation 1). […]

For `N=C(N)NCCCS(=O)(=O)Nc1ccc(Nc2c3ccccc3nc3cc([N+](=O)[O-])ccc23)cc1` [GTC365], the “Tm more increased compared to the WT” value in experiment [1] was 6-7 °C. The “full-length G-rich species (>36 nt/bp) population” value in experiment [2] is recorded as “recovered”.
